Assays:
[1] = tested on: recombinant cell line producing MAb E; test: ATF bioreactors, cell culture performance; type: cell-based; details: 500 nM monensin for ~22 hours from day 8; ATF reactors Ra, Rb
Experimental: Cells in the control reactor (black circles) were grown in the absence of monensin. Viable cell density is illustrated in FIG. 1. FIG. 2 presents the results of viability analysis. […] Daily spent medium samples were also submitted for titer analysis.
The applicability of using monensin to modulate high mannose levels in a large scale, controlled production setting was evaluated using a recombinant cell line producing MAb E in alternating tangential flow (ATF) bioreactors. MAb E cells grown in growth medium for the seed train were used to inoculate the N-1 bioreactor at 6×10^5 cells/ml in growth medium. The cells from N-1 bioreactor were then used to inoculate three, 2 L production bioreactors (N) at 7.5×10^5 cells/ml in base perfusion medium (referred to as control, Ra, and Rb bioreactors).
The production bioreactors were grown for 20 days at pH 7.00, 36° C., 30% DO and 400 rpm agitation. These production tanks were run with the ATF system starting on day 3 with 0.5 vol/day perfusion rate, which was increased to 0.6 vol/day, 0.8352 vol/day and 1 vol/day on day 6, 7 and 8, respectively. Glucose levels were maintained separately at 5 g/L since the perfusion medium was prepared without glucose.
Antifoam was also added into the tank as needed, while 1M Sodium Carbonate was used to maintain pH at the desired setpoint. […]

[2] = tested on: recombinant CHO cell line producing an antibody (MAb A); test: six day batch assay, glycan analysis (HILIC); type: cell-based, Chinese hamster; set-up: Total HM: unit not given here; details: for Man5 / Man6 / Man7 / Man8a / Man8b / Total HM: day 6
Experimental: Cells were centrifuged at 1500 rpm for five minutes and seeded at 2×10^6 cells per ml into batch production medium in a 24 deep-well plate at a final volume of 3 ml.
Cell density and viability were measured by Guava easyCyte flow cytometer (Milipore, Billerica, Mass.) with the ViaCount application. Cultures were spun down, supernatants were filtered on 0.4 micron filters, and were analyzed for titer and glycan distribution.
For glycan analysis, Peptide-N-Glycosidase F (PNGAse F)—released N-linked glycans from protein A purified antibodies were labeled with 2-aminobenzoic acid (2-AA) and separated by HILIC (hydrophilic interaction liquid chromatography) in-line with a fluorescence detector. The separation was performed using a Waters Acquity UPLC (Waters, Milford, Mass.). In-line mass spectrometry (MS), using an ion trap mass spectrometer (LTQ; Thermo Scientific, Waltham, Mass.) in positive mode, was incorporated to accommodate mass determination of species. Glycans were injected and bound to the column in high organic conditions and were then eluted with an increasing gradient of an aqueous ammonium formate buffer. Fast separation times were achieved using a […] small particle column format (Acquity UPLC BEH Glycan Column, 2.1×100 mm; Waters, Milford, Mass.).

MAb A producing cells = test: GM130 immunofluorescence microscopy of Golgi; type: cell-based, Chinese hamster; details: day 10 mock perfusion cultures; monensin-treated vs control
Experimental: (§1) On day 10, cell pellets were washed once with cold PBS and fixed in 4% paraformaldehyde for 10 minutes on ice. Cells were then washed once in again in cold PBS and stored at 4° C. until they were immunofluorescently stained as described below
(§2) Monensin is known to cause gross changes in Golgi architecture characterized by swollen and fragmented cisternae. The structure of the Golgi of CHO production cell lines after monensin treatment was analyzed using a panel of five different commercially available antibodies against various Golgi proteins with a passaging culture of recombinant cells producing MAb A using immunofluorescence microscopy.
(§3) Next, day 10 control and monensin-treated mock perfusion cultures of MAb A producing cells and MAb C producing cells were subjected to immunofluorescence microscopy using GM130 antibody. Paraformaldehyde fixed cell pellets were permeablized with 0.1% TritonX-100 made in PBS. Pellets were washed with PBSA (0.5% BSA in PBS) and incubated with GM130 antibody (BD Biosciences, San Jose, Calif.) diluted 1:50 in PBSA. Cells were washed thrice with PBSA and incubated with Alexa 488 conjugated mouse secondary antibody (Invitrogen, Grand Island, N.Y.) diluted 1:1000 in PBSA. […] Images were captured using Zeiss 510 microscope (Carl Zeiss, Inc., Jena, Germany) with 63× water immersion lens and analyzed using LSM image browser software.

MAb C producing cells = test: GM130 immunofluorescence microscopy of Golgi; type: cell-based, Chinese hamster; details: day 10; increasing monensin culminating at 100 nM from days 7-10
Experimental: as §1, §2, §3

Q: `CC[C@@]1([C@@H]2O[C@@H]([C@H]3O[C@@](O)(CO)[C@H](C)C[C@@H]3C)C[C@@H]2C)CC[C@H]([C@]2(C)CC[C@]3(C[C@H](O)[C@@H](C)[C@@H]([C@@H](C)[C@@H](OC)[C@H](C)C(=O)O)O3)O2)O1` [monensin] was tested. Which “impact on cell growth and viability” value [1] did it give?
A: The value was “slight negative impact on cell growth and viability”.

Q: And the “titers compared to the control tank” value [1]?
A: The value was “marginally improved titers”.

Q: And the Man5 ([2]; 0.1 nM monensin added day 1)?
A: Its Man5 is 0.775%.

Q: What about the Man6 ([2]; 0.1 nM monensin added day 1) of the same compound?
A: The Man6 was 0.09%.

Q: What about the Man7 ([2]; 0.1 nM monensin added day 1) of the same compound?
A: Its Man7 is 0%.

Q: What about the Man8a ([2]; 0.1 nM monensin added day 1) of the same compound?
A: Its Man8a is 0.31%.

Q: What about the Man8b ([2]; 0.1 nM monensin added day 1) of the same compound?
A: The Man8b was 0%.

Q: And the “Total HM” value ([2]; 0.1 nM monensin added day 1)?
A: Its value is 0.8.

Q: What about the Man5 ([2]; 0.5 nM monensin added day 1) of the same compound?
A: The Man5 was 0.785%.

Q: And the Man6 ([2]; 0.5 nM monensin added day 1)?
A: The Man6 was 0.07%.

Q: What about the Man7 ([2]; 0.5 nM monensin added day 1) of the same compound?
A: Its Man7 is 0%.

Q: And the Man8a ([2]; 0.5 nM monensin added day 1)?
A: Its Man8a is 0.3%.

Q: What about the Man8b ([2]; 0.5 nM monensin added day 1) of the same compound?
A: Its Man8b is 0%.

Q: What about the “Total HM” value ([2]; 0.5 nM monensin added day 1) of the same compound?
A: Its value is 0.85.

Q: And the Man5 ([2]; 1 nM monensin added day 1)?
A: The Man5 was 0.89%.

Q: And the Man6 ([2]; 1 nM monensin added day 1)?
A: Its Man6 is 0.13%.

Q: And the Man7 ([2]; 1 nM monensin added day 1)?
A: The Man7 was 0.04%.

Q: And the Man8a ([2]; 1 nM monensin added day 1)?
A: Its Man8a is 0.29%.

Q: What about the Man8b ([2]; 1 nM monensin added day 1) of the same compound?
A: Its Man8b is 0%.

Q: What about the “Total HM” value ([2]; 1 nM monensin added day 1) of the same compound?
A: The value was 1.05.

Q: And the Man5 ([2]; 5 nM monensin added day 1)?
A: The Man5 was 1.12%.

Q: What about the Man6 ([2]; 5 nM monensin added day 1) of the same compound?
A: The Man6 was 0.18%.

Q: And the Man7 ([2]; 5 nM monensin added day 1)?
A: Its Man7 is 0.27%.

Q: What about the Man8a ([2]; 5 nM monensin added day 1) of the same compound?
A: The Man8a was 0.37%.

Q: And the Man8b ([2]; 5 nM monensin added day 1)?
A: The Man8b was 0%.

Q: What about the “Total HM” value ([2]; 5 nM monensin added day 1) of the same compound?
A: The value was 1.35.

Q: What about the Man5 ([2]; 10 nM monensin added day 1) of the same compound?
A: The Man5 was 1.485%.

Q: What about the Man6 ([2]; 10 nM monensin added day 1) of the same compound?
A: Its Man6 is 0.16%.

Q: What about the Man7 ([2]; 10 nM monensin added day 1) of the same compound?
A: Its Man7 is 0%.

Q: And the Man8a ([2]; 10 nM monensin added day 1)?
A: Its Man8a is 0.315%.

Q: What about the Man8b ([2]; 10 nM monensin added day 1) of the same compound?
A: The Man8b was 0%.

Q: And the “Total HM” value ([2]; 10 nM monensin added day 1)?
A: Its value is 1.6.

Q: And the “increase of total high mannose glycans on the recombinant antibody” value ([2]; 25 nM bolus on day 0 or 200 nM or 100 nM bolus on day 3)?
A: The value was 6 to 30 fold.

Q: What about the Man5 ([2]; 25 nM monensin added day 1) of the same compound?
A: The Man5 was 6.43%.

Q: What about the Man6 ([2]; 25 nM monensin added day 1) of the same compound?
A: The Man6 was 0.59%.

Q: And the Man7 ([2]; 25 nM monensin added day 1)?
A: The Man7 was 0.59%.

Q: And the Man8a ([2]; 25 nM monensin added day 1)?
A: The Man8a was 0.39%.

Q: What about the Man8b ([2]; 25 nM monensin added day 1) of the same compound?
A: The Man8b was 0.115%.

Q: What about the “Total HM” value ([2]; 25 nM monensin added day 1) of the same compound?
A: Its value is 7.65.

Q: What about the “effect on high mannose and on cell growth, viability and titer” value ([2]; 50 nM incubated for six days and 500 nM incubated for three days) of the same compound?
A: Its value is “large increases in high mannose at the expense of cell growth, viability and titer”.

Q: What about the Man5 ([2]; 50 nM monensin added day 1) of the same compound?
A: Its Man5 is 15.725%.

Q: What about the Man6 ([2]; 50 nM monensin added day 1) of the same compound?
A: The Man6 was 4.64%.

Q: And the Man7 ([2]; 50 nM monensin added day 1)?
A: Its Man7 is 4.73%.

Q: And the Man8a ([2]; 50 nM monensin added day 1)?
A: The Man8a was 0.8%.

Q: What about the Man8b ([2]; 50 nM monensin added day 1) of the same compound?
A: Its Man8b is 2.02%.

Q: What about the “Total HM” value ([2]; 50 nM monensin added day 1) of the same compound?
A: The value was 25.1.

Q: What about the Man5 ([2]; 100 nM monensin added day 3) of the same compound?
A: Its Man5 is 19.365%.

Q: What about the Man6 ([2]; 100 nM monensin added day 3) of the same compound?
A: The Man6 was 7.475%.

Q: And the Man7 ([2]; 100 nM monensin added day 3)?
A: Its Man7 is 6.795%.

Q: What about the Man8a ([2]; 100 nM monensin added day 3) of the same compound?
A: The Man8a was 0.8%.

Q: What about the Man8b ([2]; 100 nM monensin added day 3) of the same compound?
A: Its Man8b is 2.635%.

Q: And the “Total HM” value ([2]; 100 nM monensin added day 3)?
A: The value was 33.65.

Q: What about the Man5 ([2]; 200 nM monensin added day 3) of the same compound?
A: The Man5 was 18.585%.

Q: What about the Man6 ([2]; 200 nM monensin added day 3) of the same compound?
A: The Man6 was 4.975%.

Q: And the Man7 ([2]; 200 nM monensin added day 3)?
A: Its Man7 is 3.795%.

Q: What about the Man8a ([2]; 200 nM monensin added day 3) of the same compound?
A: The Man8a was 0.61%.

Q: What about the Man8b ([2]; 200 nM monensin added day 3) of the same compound?
A: The Man8b was 1.17%.

Q: And the “Total HM” value ([2]; 200 nM monensin added day 3)?
A: Its value is 27.35.

Q: And the Man5 ([2]; 500 nM monensin added day 3)?
A: Its Man5 is 11.735%.

Q: And the Man6 ([2]; 500 nM monensin added day 3)?
A: The Man6 was 1.545%.

Q: What about the Man7 ([2]; 500 nM monensin added day 3) of the same compound?
A: Its Man7 is 1.045%.

Q: What about the Man8a ([2]; 500 nM monensin added day 3) of the same compound?
A: The Man8a was 0.355%.

Q: And the Man8b ([2]; 500 nM monensin added day 3)?
A: The Man8b was 0.2%.

Q: What about the “Total HM” value ([2]; 500 nM monensin added day 3) of the same compound?
A: Its value is 14.3.

Q: And the “impact on high mannose or cell culture parameters” value ([2]; monensin concentrations between 0.1 to 10 nM)?
A: Its value is “no impacts on high mannose or cell culture parameters”.

Q: What about the “Golgi morphology (GM130 staining)” value (MAb A producing cells) of the same compound?
A: Its value is “No morphological difference”.

Q: And the “Golgi morphology (GM130 staining)” value (MAb C producing cells)?
A: Its value is “punctate distribution of GM130 protein”.

— US11299760B2 (Amgen Inc., priority 2013, dated 2022)
